[nps] = N3'-P5' thiophosphoramidate linkage (3'-amino-3'-deoxy nucleosides); {Palm} = O-[2-hydroxy-3-(hexadecanoylamino)propyl] group (palmitoyl lipid)
Columns and labels:
[1] = test system: human telomerase reverse transcriptase (hTERT) isoforms; assay: Laboratory correlative study: human telomerase reverse transcriptase (hTERT) isoforms; assay type: in vivo; details: treated myelofibrosis patients
Procedure: (§1) Imetelstat sodium was administered by a 2-hour intravenous infusion (9.4 mg/kg) every three weeks (cohort A) or weekly×3 followed by every three weeks (cohort B). In addition, patient samples were screened for mutations in ASXL1, SRSF2, SF3B1, and U2AF1 by DNA sequencing. Quantitative PCR was used to measure JAK2V617F burden (assay sensitivity 0.01%). Laboratory correlative studies included analyses of granulocyte telomere length, mononuclear cell telomerase activity, and the presence of human telomerase reverse transcriptase (hTERT) isoforms.

[2] = test system: patients with high or intermediate-2 risk myelofibrosis; assay: Investigator-sponsored single-center clinical study (NCT01731951): responses by International Working Group criteria; assay type: in vivo, human
Procedure: (§2) In an investigator-sponsored single-center study (ClinicalTrials.gov, Identifier: NCT01731951), imetelstat sodium was administered to patients with high or intermediate-2 risk myelofibrosis. Adverse events were monitored by common terminology criteria (Version 4.03), and responses were monitored by the International Working Group criteria. Eligibility criteria included platelets≥50×10^9/L.
as §1
(§3) Thirty-three patients were accrued. The first 18 patients who were enrolled and followed for a minimum of three months or discontinued were assessed herein: eleven for cohort A, and seven for cohort B; 44% primary myelofibrosis, 33% post-PV myelofibrosis and 22% post-ET myelofibrosis. The median age was 68 years, and the baseline risk was high in 56% of the patients and intermediate-2 in 44% of the patients. Seven patients were transfusion-dependent. Median spleen size was 13 cm, and eleven patients had constitutional symptoms. Karyotype was abnormal in seven patients, and 89% were JAK2-mutated. Fifteen patients (83%) were previously treated, including seven with a JAK inhibitor and three with pomalidomide.

[3] = test system: patients with high or intermediate-2 risk myelofibrosis; assay: Clinical study (NCT01731951): adverse events by common terminology criteria (Version 4.03); assay type: in vivo, human
Procedure: as §2, §1, §3

[4] = test system: granulocyte telomere length; assay: Laboratory correlative study: granulocyte telomere length; assay type: in vivo, human; details: treated myelofibrosis patients
Procedure: as §1

[5] = test system: mononuclear cell telomerase activity; assay: Laboratory correlative study: mononuclear cell telomerase activity; assay type: in vivo, human; details: treated myelofibrosis patients
Procedure: as §1

[6] = first 18 patients, 9.4 mg/kg iv
[7] = cohort A (9.4 mg/kg every three weeks)
[8] = cohort B (9.4 mg/kg weekly x3 followed by every three weeks)

5′-[O-[2-hydroxy-3-[(1-oxohexadecyl)amino]propyl] phosphorothioate]-d(3′-amino-3′-deoxy-P-thio)(T-A-G-G-G-T-T-A-G-A-C-A-A) (SEQ ID NO:1) sodium salt (13) (TAGGGTTAGACAA; all [nps], 5' {Palm}*, sugars by position and methylation of C not given here; 3'-amino-3'-deoxy nucleosides, sodium salt) [imetelstat sodium, sodium salt of imetelstat, a synthetic lipid-conjugated, 13-mer oligonucleotide N3′ P5′-thio-phosphoramidate]
effect on hTERT isoform pattern [1]: alteration of the hTERT isoform pattern | complete molecular responses ([2]; CR patients, U2AF1Q157P and 10% JAK2V617F, SF3B1K666E and 50% JAK2V617F): two | reduction in U2AF1 469_insAGTATG mutation ([2]; a third CR patient): > 50% | patients with leukocytosis who normalized their count or had a >50% reduction ([2]; among thirteen patients with leukocytosis): 77% | CR patients transfusion-dependent at baseline who became transfusion-independent ([2]; first 18 patients): Two | complete or partial resolution of leukoerythroblastosis ([2]; first 18 patients): 61% | overall response rate ([2]; first 18 patients, 9.4 mg/kg 2-hour intravenous infusion, cohorts A and B): 44% | CR patients with reversal of bone marrow fibrosis and recovery of normal megakaryocyte morphology [2, 6]: 22% | partial response (PR), number of patients [2, 6]: 1 patients | patients who met the bone marrow and peripheral blood morphologic criteria for complete response (CR) or partial response (PR) [2, 6]: 28% | patients with clinical improvement ([2]; first 18 patients, pending validation of response duration and resolution of drug-induced grade-1 thrombocytopenia): three | patients achieving CR ([2]; six patients with a spliceosome mutated genotype): 50% | patients achieving CR ([2]; twelve patients with an unmutated spliceosome genotype): 8% | grade-3 anemia [3, 7]: 9% | grade-3 thrombocytopenia [3, 7]: 27% | grade-4 treatment-related adverse events [3, 7]: no grade-4 treatment-related adverse events | grade-3 anemia [3, 8]: one | grade-3 neutropenia [3, 8]: one | grade-3 thrombocytopenia [3, 8]: one | grade-4 thrombocytopenia [3, 8]: 29% | dose reduction necessary because of grade 3 or 4 myelosuppression ([3]; first 18 patients): 11% | patients remaining on treatment ([3]; median follow-up of 3.2 months, first 18 patients): 89% | grade-3/4 myelosuppression ([3]; patients with an unmutated spliceosome genotype): 25% | grade-3/4 myelosuppression ([3]; spliceosome-mutated patients): 67% | effect on telomere length [4]: shortening of telomere length | effect on telomerase activity [5]: suppression of telomerase activity

imetelstat: telomerase inhibitor; synthetic lipid-conjugated, 13-mer oligonucleotide N3′ P5′-thio-phosphoramidate (DNA TAGGGTTAGACAA; listed as DNA, chemistry not fully specified)
likelihood of complete or partial remission ([2]; ASXL1-mutated cases among the 33 study patients): 0% | likelihood of complete or partial remission ([2]; ASXL1-unmutated cases among the 33 study patients): 36%

From patent publication US11123359B2, “Methods and materials for treating hematological malignancies” (Mayo Foundation for Medical Education and Research, priority 2013, dated 2021)
